Test results published in PubChem BioAssay AID248 (DTP/NCI, 2004).
“And” between values parts separate entries of the source, which are not always exact repeats. Equal values may be shown once. Toxic doses and inconclusive results are not listed. Rule as the data show it: active = T/C of 150% or more; inactive = T/C below 125%.

Test system: L1210 leukemia ip in BDF1 mice, survival T/C
Assay: NCI In Vivo Anticancer Drug Screen. Data for tumor model L1210 Leukemia (intraperitoneal) in B6D2F1 (BDF1) mice
Details: endpoint: mean survival time, higher = longer survival
How it was run: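 In this screen, tumor-bearing mice given compound are compared to those given vehicle, and their survival values are reported as a treated-to-control quotient.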

[1] = dose: 100.0 mg/kg/injection, schedule: Q01DX009 (ip), vehicle: Klucel (hydroxypropylcellulose) (HPC)
[2] = dose: 100.0 mg/kg/injection, schedule: Q04DX003 (ip), vehicle: Klucel (hydroxypropylcellulose) (HPC)
[3] = dose: 200.0 mg/kg/injection, schedule: Q04DX003 (ip), vehicle: Klucel (hydroxypropylcellulose) (HPC)
[4] = dose: 400.0 mg/kg/injection, schedule: Q04DX003 (ip), vehicle: Klucel (hydroxypropylcellulose) (HPC)
[5] = dose: 100.0 mg/kg/injection, schedule: Q04DX003 (ip), vehicle: saline with Tween-80
[6] = dose: 200.0 mg/kg/injection, schedule: Q04DX003 (ip), vehicle: saline with Tween-80
[7] = dose: 400.0 mg/kg/injection, schedule: Q04DX003 (ip), vehicle: saline with Tween-80
[8] = dose: 100.0 mg/kg/injection, schedule: Q04DX003 (ip), vehicle: saline
[9] = dose: 200.0 mg/kg/injection, schedule: Q04DX003 (ip), vehicle: saline
[10] = dose: 400.0 mg/kg/injection, schedule: Q04DX003 (ip), vehicle: saline
[11] = dose: 50.0 mg/kg/injection, schedule: Q01DX009 (ip), vehicle: saline
[12] = dose: 100.0 mg/kg/injection, schedule: Q01DX009 (ip), vehicle: saline
[13] = dose: 25.0 mg/kg/injection, schedule: Q04DX002 (ip), vehicle: saline
[14] = dose: 50.0 mg/kg/injection, schedule: Q04DX002 (ip), vehicle: saline
[15] = dose: 200.0 mg/kg/injection, schedule: Q01DX009 (ip), vehicle: saline
[16] = dose: 25.0 mg/kg/injection, schedule: Q04DX003 (ip), vehicle: saline
[17] = dose: 50.0 mg/kg/injection, schedule: Q04DX003 (ip), vehicle: saline

Measured: T/C

O=C(O)/C=C/c1cc(O)c(O)c(O)c1
inactive: dose: 25.0 mg/kg/injection, schedule: Q01DX001 (ip), vehicle: other 100 % of control | dose: 50.0 mg/kg/injection, schedule: Q01DX001 (ip), vehicle: other 99 % of control | dose: 100.0 mg/kg/injection, schedule: Q01DX001 (ip), vehicle: other 94 % of control

COc1ccc2ncc(C)c(C=O)c2c1
inactive: [1] 95 % of control | dose: 200.0 mg/kg/injection, schedule: Q01DX009 (ip), vehicle: Klucel (hydroxypropylcellulose) (HPC) 96 % of control | dose: 400.0 mg/kg/injection, schedule: Q01DX009 (ip), vehicle: Klucel (hydroxypropylcellulose) (HPC) 110 % of control

Cc1nc(N)[nH]c(=O)c1CCCNCc1ccccc1
inactive: dose: 100.0 mg/kg/injection, schedule: Q01DX001 (ip), vehicle: Klucel (hydroxypropylcellulose) (HPC) 96 % of control | dose: 200.0 mg/kg/injection, schedule: Q01DX001 (ip), vehicle: Klucel (hydroxypropylcellulose) (HPC) 94 % of control | dose: 400.0 mg/kg/injection, schedule: Q01DX001 (ip), vehicle: Klucel (hydroxypropylcellulose) (HPC) 94 % of control

O=C(Nc1cccc2ccccc12)Oc1ccccc1Cc1ccccc1
inactive: [2] 93 % of control | [3] 93 % of control | [4] 96 % of control

C=CC(C)C1C(C)C(Cl)CC(Cl)C1OC(=O)c1ccccc1 (stereo not drawn)
inactive: dose: 50.0 mg/kg/injection, schedule: Q01DX001 (ip), vehicle: carboxymethylcellulose (CMC) 100 % of control | dose: 100.0 mg/kg/injection, schedule: Q01DX001 (ip), vehicle: carboxymethylcellulose (CMC) 112 % of control | dose: 200.0 mg/kg/injection, schedule: Q01DX001 (ip), vehicle: carboxymethylcellulose (CMC) 94 % of control | dose: 400.0 mg/kg/injection, schedule: Q01DX001 (ip), vehicle: carboxymethylcellulose (CMC) 96 % of control

COc1ccc(NC(=O)Nc2cc(C(F)(F)F)ccc2Cl)cc1
inactive: [5] 88 % of control | [6] 91 % of control | [7] 86 % of control

Nc1ccn(CC(=O)N2CCC3(CC2)SSC2(CCN(C(=O)Cn4ccc(N)nc4=O)CC2)S3)c(=O)n1
inactive: [8] 97 % of control | [9] 91 % of control | [10] 97 % of control

CC(C)NNCCO
inactive: [11] 98 % of control | [12] 103 % of control | [8] 89 % of control | [9] 95 % of control

CC(/C=C(\C)N1CCCC1)=[N+]1CCCC1
inactive: dose: 0.78 mg/kg/injection, schedule: Q01DX009 (ip), vehicle: saline 101 % of control | dose: 1.56 mg/kg/injection, schedule: Q01DX009 (ip), vehicle: saline 101 % of control | dose: 1.56 mg/kg/injection, schedule: Q04DX003 (ip), vehicle: saline 94 % of control and 108 % of control | dose: 3.12 mg/kg/injection, schedule: Q04DX003 (ip), vehicle: saline 112 % of control and 89 % of control | dose: 6.25 mg/kg/injection, schedule: Q04DX003 (ip), vehicle: saline 110 % of control

NCC1CCNCC1
inactive: [13] 103 % of control | [14] 97 % of control and 100 % of control | dose: 100.0 mg/kg/injection, schedule: Q04DX002 (ip), vehicle: saline 103 % of control and 106 % of control | dose: 200.0 mg/kg/injection, schedule: Q04DX002 (ip), vehicle: saline 102 % of control and 90 % of control | dose: 400.0 mg/kg/injection, schedule: Q04DX002 (ip), vehicle: saline 97 % of control

C/C(=C(/CCO)SCCC(=O)c1ccc(Cl)cc1)N(C=O)Cc1cnc(C)nc1N
inactive: [8] 97 % of control | [9] 93 % of control | [10] 97 % of control

Cc1cc(C)[nH]c(=O)c1
inactive: [5] 109 % of control | [6] 102 % of control | [7] 98 % of control

c1ccc(C2=C(c3ccccc3)C(c3ccccc3)=C(c3ccccc3)CC2)cc1
inactive: dose: 100.0 mg/kg/injection, schedule: Q01DX001 (ip), vehicle: saline with Tween-80 89 % of control | dose: 200.0 mg/kg/injection, schedule: Q01DX001 (ip), vehicle: saline with Tween-80 89 % of control | dose: 400.0 mg/kg/injection, schedule: Q01DX001 (ip), vehicle: saline with Tween-80 86 % of control

CCCCCCCCCCCCCCCCCCOC(=O)C(C(C)=O)C(c1cccc([N+](=O)[O-])c1)C(C(C)=O)C(=O)O (stereo not drawn)
inactive: dose: 25.6 mg/kg/injection, schedule: Q04DX002 (ip), vehicle: saline with Tween-80 87 % of control | dose: 64.0 mg/kg/injection, schedule: Q04DX002 (ip), vehicle: saline with Tween-80 95 % of control | [5] 90 % of control | dose: 160.0 mg/kg/injection, schedule: Q04DX002 (ip), vehicle: saline with Tween-80 95 % of control | dose: 400.0 mg/kg/injection, schedule: Q04DX002 (ip), vehicle: saline with Tween-80 91 % of control | [7] 92 % of control

CCCCCCCCCCCCCCCCS(=O)(=O)c1ccccc1NC(N)=O
inactive: [2] 97 % of control | [3] 98 % of control | [4] 95 % of control

Cc1nc(CON)cs1
inactive: [11] 92 % of control | [8] 100 % of control | [15] 90 % of control | [9] 92 % of control

COc1ccc(OC)c(NC(=O)Oc2ccccc2F)c1
inactive: dose: 50.0 mg/kg/injection, schedule: Q01DX009 (ip), vehicle: Klucel (hydroxypropylcellulose) (HPC) 97 % of control | [1] 93 % of control | [2] 90 % of control | [3] 93 % of control | [4] 92 % of control

CC(C)CC(N)C(N)=O (stereo not drawn)
inactive: dose: 12.5 mg/kg/injection, schedule: Q04DX002 (ip), vehicle: saline 107 % of control | [13] 100 % of control | [14] 107 % of control

[NH-]CC(=O)[N-]CC(=O)O.[NH-]CC(=O)[N-]CC(=O)O.[Ni]
inactive: dose: 25.0 mg/kg/injection, schedule: Q01DX009 (ip), vehicle: saline 86 % of control | [16] 107 % of control | [17] 116 % of control | [8] 98 % of control and 92 % of control

CCCCCCCCCCNC(=O)C[n+]1cccc(C(N)=O)c1
inactive: dose: 12.5 mg/kg/injection, schedule: Q04DX003 (ip), vehicle: saline 86 % of control | [16] 89 % of control | [17] 102 % of control

CC(C)CC(NC(=O)CNC(=O)OCc1ccccc1)C(=O)O (stereo not drawn)
inactive: [5] 101 % of control | [6] 97 % of control | [7] 91 % of control

[Cl][Al]([Cl])[Cl]
inactive: dose: 6.25 mg/kg/injection, schedule: Q01DX009 (ip), vehicle: saline 102 % of control | dose: 12.5 mg/kg/injection, schedule: Q01DX009 (ip), vehicle: saline 93 % of control | [17] 91 % of control | dose: 100.0 mg/kg/injection, schedule: Q01DX001 (ip), vehicle: saline 97 % of control and 89 % of control and 96 % of control | [12] 87 % of control | [8] 100 % of control and 87 % of control | dose: 200.0 mg/kg/injection, schedule: Q01DX001 (ip), vehicle: saline 98 % of control and 94 % of control | [15] 96 % of control | [9] 96 % of control and 101 % of control and 90 % of control | dose: 400.0 mg/kg/injection, schedule: Q01DX001 (ip), vehicle: saline 100 % of control and 114 % of control | dose: 400.0 mg/kg/injection, schedule: Q01DX009 (ip), vehicle: saline 91 % of control

CC(O)(C(=O)O)c1ccccc1 (stereo not drawn) (tested in a mixture with another compound)
inactive: dose: 100.0 mg/kg/injection, schedule: Q01DX009 (ip), vehicle: other 94 % of control | [8] 92 % of control | dose: 200.0 mg/kg/injection, schedule: Q01DX009 (ip), vehicle: other 98 % of control | [9] 103 % of control | dose: 400.0 mg/kg/injection, schedule: Q01DX009 (ip), vehicle: other 102 % of control | [10] 89 % of control

CC(OC(=O)CF)C(C)OC(=O)CF (stereo not drawn)
inactive: dose: 0.5 mg/kg/injection, schedule: Q01DX001 (ip), vehicle: carboxymethylcellulose (CMC) 110 % of control | dose: 1.0 mg/kg/injection, schedule: Q01DX001 (ip), vehicle: carboxymethylcellulose (CMC) 94 % of control | dose: 2.0 mg/kg/injection, schedule: Q01DX001 (ip), vehicle: carboxymethylcellulose (CMC) 108 % of control | dose: 4.0 mg/kg/injection, schedule: Q01DX001 (ip), vehicle: carboxymethylcellulose (CMC) 100 % of control | dose: 8.0 mg/kg/injection, schedule: Q01DX001 (ip), vehicle: carboxymethylcellulose (CMC) 108 % of control
